From patent US20240373850A1, “Compositions comprising resinous exudate metabolites from plants of the genus Adesmia, used to control and treat infections in plant crops; and methods for controlling infections in plant crops” (PONTIFICIA UNIVERSIDAD CATÓLICA DE VALPARAÍSO, priority 2021, published 2024)
Values joined by “and” are separate entries in the source; they are usually repeats but may differ in a detail not shown here. Identical values can stand only once. Like-named read-outs stand apart in the source and are kept apart here.

What was measured:
[1] = system: Pseudomonas syringae pv actinidiae code 770; experiment: Antibacterial micro-dilution test (MIC), Psa 770; assay type: cell-based; conditions: read-out: MIC Psa 770
Description: (§1) Antibacterial test of secondary metabolites isolated from the resinous exudates of Adesmia plants against the pathogen (Psa), from isolates made in Chile and Italy, also tested on other bacteria of interest, in vitro.
(§2) All strains were cultivated in Nutrient culture medium supplemented with 3% sucrose (SNA), and incubated at 27° C. The bacterial inoculum was produced in Mueller-Hinton (MH) culture medium in glass test tubes and incubated at 27° C. in an orbital shaker at 150 rpm in the dark for 24 hours. A stock solution of each molecule was prepared to obtain a concentration of 2000 mg/L, later they were diluted in a 96-well microplate with MH culture medium and thus obtain the different concentrations of […] of each molecule. The antibacterial activity of the molecules was determined by the method of micro-dilution of the substance to be tested. Four controls were used: negative control (only MH liquid culture medium inoculated with bacteria); positive control (liquid MH culture medium adding Chloramphenicol at the same concentrations tested inoculated with bacteria and in the case of the Italian strain, copper sulfate was added), negative control (1) only substances plus solvent (liquid MH culture medium plus ethanol at 1% without inoculating bacteria) and a white control (only MH liquid culture medium, without inoculating). The bacterial suspension of each of the strains was adjusted to 0.5 McFarland (1×10^8 cfu/ml), inoculating 1.5 μL per well in the microplate and subsequently incubated at 27° C. for 24 hours.
(§3) The absorbances or optical density (O.D) were converted to percentage of antibacterial inhibition (PIAB) using the following formula:
(§4) In addition, […] aliquots of each of the concentrations were swept in a petri dish to observe the presence or absence of Psa colonies after 48 hours.

[2] = system: Pseudomonas syringae pv actinidiae code 8.43; experiment: Antibacterial micro-dilution test (MIC), Psa 8.43; assay type: cell-based; conditions: read-out: MIC Psa 8.43
Description: as §1, §2, §3, §4

E. carotovora = experiment: Membrane integrity by Sytox Green staining, E. carotovora; assay type: cell-based, Erwinia carotovora; conditions: 50 ug/mL, 3 hours of incubation, fluorescence microscope
Description: FIG. 11: Effect of 2′, 4′ dihydroxychalcone on the integrity of the cell membrane of E. carotovora. The bacteria were incubated in a culture medium at 22 QC in the presence of 30% (v/v) ethanol (a), 5% methanol; 50 ug/mL of the compound against E. carotovora seen in bright field (b) and seen under fluorescence (c) for 3 hours of incubation.
(§5) Determination of the effect of compound 2 4′ dihydroxychalcone (compound No. 4) on the integrity of the membrane of Gram negative and Gram positive bacteria.
(§6) Because several studies have established that phenolic compounds destroy the bacterial membrane, the effect of the major compound […] (compound No. 4) present in the exudate of plants of the Adesmia genus was evaluated, which was attributes the antibacterial activity that they present against Pseudomonas syringae pv actinidiae (Psa). It was tested against Gram-negative bacteria of agricultural importance Erwinia carotovora by Sytox Green staining. […] In this way, through the observation of nuclei stained with Sytox in the fluorescence microscope (100×), it is evident that the mechanism of action of the compound against both the Gram positive bacteria S. aureus and Gram negative E. carotovora is the destruction of the plasma membrane (FIG. 11c).

S. aureus = experiment: Membrane integrity by Sytox Green staining, S. aureus; assay type: cell-based; conditions: 50 ug/mL, 3 hours of incubation, fluorescence microscope
Description: as §5, §6

Erwinia carotovora = experiment: Antibacterial micro-dilution test (MIC), E.c; assay type: cell-based; conditions: Pectobacterium carotovorum, read-out: MIC E.c
Description: as §1
(§7) All strains were cultivated in Nutrient culture medium supplemented with 3% sucrose (SNA), and incubated at 27° C. The bacterial inoculum was produced in Mueller-Hinton (MH) culture medium in glass test tubes and incubated at 27° C. in an orbital shaker at 150 rpm in the dark for 24 hours. A stock solution of each molecule was prepared to obtain a concentration of 2000 mg/L, later they were diluted in a 96-well microplate with MH culture medium and thus obtain the different concentrations of […] of each molecule. The antibacterial activity of the molecules was determined by the method of micro-dilution of the substance to be tested. […]
(§8) Through the evaluation of absorbance at 600 nm in an Accu Reader M965 spectrophotometer, those treatments that were effective in inhibiting growth compared to the negative control were selected, to subsequently quantify the percentage of inhibition. The absorbances or optical density (O.D) were converted to percentage of antibacterial inhibition (PIAB) using the following formula: […]

[3] = system: Pseudomonas syringae pv actinidiae (Psa) 190770; experiment: In vivo antibacterial activity test in Kiwi seedlings, phytopathological evaluation; set-up: species or system Kiwi A. chinensis; conditions: 500 ug/mL
Excerpt: In vivo antibacterial activity tests of the compounds of the present invention, in Kiwi crops.
It is important to point out that the Chilean patent application 0881-2018 of the same inventors of the present invention, describes a procedure to prepare a composition obtained from resinous exudates of the aerial parts of plants of the genus Adesmia, to control in vitro and in vivo infections. in plant crops. In addition, methods for controlling infections in plant crops are described, which comprise applying said composition to crops infected with various microorganisms. […] For this, Kiwi A. chinensis seedlings from in vitro propagation were used. The bacterium Pseudomonas syringae pv actinidiae (Psa) 190770 used in the in vitro tests was used. The plants were kept in aseptic chambers with 50% relative humidity, under controlled temperature conditions (20° C.±2) and a photoperiod regimen of 12 hours of light and 12 hours of darkness. Both the application of the treatments and inoculation were applied in the summer season. The bacterial inoculum was sprayed on the surface of the leaves of the plants, which had been subjected to small wounds on the leaves. […] Control plants were only sprayed with sterile distilled water and kept isolated from the others treated with Psa.
(§9) The evaluations were made periodically to observe the symptoms of the plant (Table No. 4) and the samples were taken at the third and fourth week from the inoculation, in which the leaves were collected at the moment of beginning to see symptoms or in their defect a month after starting the trial, they were frozen in RNALater® and stored at −80° C. for RNA isolation.

Bacillus subtilis = experiment: Antibacterial micro-dilution test (MIC), B.s; assay type: cell-based; conditions: read-out: MIC B.s
Description: as §1, §2, §8

[4] = system: Pseudomonas syringae pv actinidiae (Psa); experiment: Absolute quantification of Psa infecting kiwi plants by qRT-PCR; assay type: in vivo, Kiwi A. chinensis; conditions: leaves, 3-4 weeks after inoculation, replicate runs; listed as Treatment 3
Description: as §9
For this, the total RNA of the problem samples was isolated from 80 to 100 mg of tissue from the leaves of A. chinensis belonging to the applied treatments, which were extracted with the E.Z.N.A.® PLANT RNA Kit using the protocol for difficult samples described by the manufacturer and the concentration of the extracted material was quantified through the Nanodrop equipment. The qRT-PCR was performed using the AriaMx Realtime PCR System equipment, using the Takion Sybrgreen+One step converter kit and specific primers synthesized by IDT (Integrated DNA Technologies) (See Table 6).
The program conditions were 48° C. for 10 min, 95° C. for 3 min, followed by 40 cycles of 95° C. for 10 sec, alignment and extension at 60° C. for 50 sec; then the melting curves 95° C. for 30 sec., 65° C. for 30 sec., and 95° C. for 30 sec. […] The number of copies/ng of Total Psa RNA were calculated through the equation of the straight line provided by the equipment, which was analyzed with the standard curve included in each qRT-PCR run.

[5] = system: Pseudomonas syringae syringae; experiment: Antibacterial micro-dilution test (MIC), Pss; assay type: cell-based; conditions: MH medium, 27° C., 24 hours
Description: as §1, §7, §8

[6] = micro-dilution, MH medium, 27° C., 24 hours

| MIC [1, 6] [µg/mL] | MIC [5] [µg/mL] | MIC (Bacillus subtilis; [6]) [µg/mL] | MIC [2, 6] [µg/mL] | Compound | MIC ([1]; 24 h) [µg/mL] | MIC ([2]; 24 h) [µg/mL] | also measured |
| --- | --- | --- | --- | --- | --- | --- | --- |
|  |  |  |  | CC(C)=CCc1cc(C(=O)CCc2ccccc2)c(O)cc1O [Compound 1] | ≥ 400 | ≥ 200 |  |
|  |  |  |  | CC(C)=CCc1c(O)cc(O)c2c1O[C@H](c1ccccc1)CC2=O [Compound 2, glabranin] | ≥ 400 |  |  |
|  |  |  |  | CC(C)=CCc1c(O)ccc(C(=O)/C=C/c2ccccc2)c1O [Compound 3, isochordine] | ≥ 1600 |  |  |
|  |  |  |  | O=C(/C=C/c1ccccc1)c1ccc(O)cc1O [Compound 4, 2′,4′-dihydroxychalcone] | ≥ 200 | ≥ 50 | effect on the integrity of the plasmatic membrane (E. carotovora): alteration of the plasmatic membrane was observed; effect on the integrity of the plasmatic membrane (S. aureus): alteration of the plasmatic membrane was observed; MIC (Erwinia carotovora; 24 h): ≥ 10 µg/mL; in vivo inhibition of the disease caused by Psa in Kiwi cultures [3]: in vivo inhibition of the disease; plants without visual symptoms of the disease (level 0, healthy plants) ([3]; preventive treatment): 60%; Percentage of incidence ([3]; preventive, sprayed 24 hours before inoculation): 40%; Level of Incidence according to category (Maximum value 3) ([3]; preventive, sprayed 24 hours before inoculation, damage scale 0-3 of Table No. 4): 0.4; MIC (Bacillus subtilis; 24 h): ≥ 10 µg/mL; Ct [4]: 29.17 and 27.80 and 30.01 |
| ≥ 400 | ≥ 50 | ≥ 10 | ≥ 1600 | COc1ccc(C(=O)CCc2ccccc2)c(OC)c1 [Compound 9, 2′,4′-dimethoxydihydrochalcone] |  |  | MIC (Erwinia carotovora; [6]): ≥ 10 µg/mL |
| ≥ 50 | ≥ 50 | ≥ 10 | ≥ 50 | O=C(/C=C/c1ccccc1)c1c(O)cc(O)cc1O [Compound 10, 2′,4′, 6′-trihydroxy chalcone] |  |  |  |
